Source: publication PMC6855212, “Antibacterial activity of synthetic 1,3‐bis(aryloxy)propan‐2‐amines against Gram‐positive bacteria” (MicrobiologyOpen, 2019)
In brackets after ≈: the same amount, converted by molar mass. Several values for one entry are separate records, joined by “and”; a condition that tells them apart may be missing. Equal entries are not always repeated. Where two headings read alike, the source gives them in different places.

Key:
[1] = test system: Gram‐positive bacteria (E. faecalis, S. aureus and S. pyogenes); assay: MIC, broth microdilution, Gram‐positive bacteria taken together; format: cell-based; settings: Staphylococcus aureus; over different bacterial strains, including MRSA where stated; read-out: MIC against Gram‐positive bacteria, summary
Procedure: (§1) The antibacterial activity of the compounds was evaluated using the broth microdilution method in 96‐well microplates according to the Clinical and Laboratory Standards Institute protocol (CLSI, 2017). First, synthetic compounds were diluted in Mueller Hinton broth (MHB; Oxoid, Thermo Scientific, UK) to concentrations ranging from 20 to 2.5 μg/ml. The same volume of a bacterial suspension containing 10^5 CFU/ml was added to each of the previous solutions, resulting in final compound concentrations from 10 to 1.25 μg/ml. […] All conditions were tested in triplicate and the results shown are representative of three independent assays.

[2] = test system: MRSA Strain 6613; assay: MBC, plating of wells without growth; format: cell-based; settings: Staphylococcus aureus
Procedure: (§2) After incubation at 35°C for 24 hr, the colonies were counted and the percentage of inhibition was calculated. MBC is defined as the lowest compound's concentration that inhibits at least 99.9% of the bacterial cell count compared to nontreated viability control (Clinical and Laboratory Standards Institute, 1999).

[3] = test system: MRSA Strain 5912; assay: MBC, plating of wells without growth; format: cell-based; settings: Staphylococcus aureus
Procedure: as §2

[4] = test system: MRSA Strain 5749; assay: MBC, plating of wells without growth; format: cell-based; settings: Staphylococcus aureus
Procedure: as §2

[5] = test system: S. aureus ATCC 29212; assay: MBC, plating of wells without growth; format: cell-based; settings: Staphylococcus aureus, ATCC29212; at least 99.9% inhibition of cell count
Procedure: as §2

[6] = test system: S. pyogenes ATCC 19615; assay: MBC, plating of wells without growth; format: cell-based; settings: Streptococcus pyogenes, ATCC19615; at least 99.9% inhibition of cell count
Procedure: as §2

[7] = test system: MRSA Strain 6154; assay: MBC, plating of wells without growth; format: cell-based; settings: Staphylococcus aureus
Procedure: as §2

[8] = Cytotoxicity, MTT reduction assay; format: cell-based; settings: African green monkey, 48 hr
Procedure: The cytotoxicity of active compounds to mammalian cells was assessed using the MTT reduction assay (Mosmann, 1983). Vero and BSC‐40 cells were seeded in 96‐well plates (8 × 10^4 cells per well) and incubated at 37°C and 5% CO2 atmosphere. After 24 hr of incubation, 200 μL of fresh medium containing a serial dilution of compounds (10–1.25 μg/ml) were added to the plates. After 48 hr of incubation in the same conditions, 100 μL of MTT solution in MEM or DMEM (5 mg/ml) was added to each well and incubated for 3 hr at 37°C and 5% CO2 atmosphere. The medium was removed and 100 μL of DMSO was used to solubilize formazan crystals. Absorbance at 570 nm of each well was read using a spectrophotometer (VersaMax, Molecular Devices).

[9] = test system: Staphylococcus aureus ATCC 29212; assay: MIC, broth microdilution; format: cell-based; settings: for MIC: Staphylococcus aureus, ATCC29212; for Antibacterial activity in initial screening, S. aureus: concentration of 10 μg/ml
Procedure: as §1

[10] = test system: Streptococcus pyogenes ATCC 19615; assay: MIC, broth microdilution; format: cell-based; settings: for MIC: Streptococcus pyogenes, ATCC19615; for Antibacterial activity in initial screening, S. pyogenes: concentration of 10 μg/ml
Procedure: as §1

[11] = test system: MRSA Strain 6613; assay: MIC, broth microdilution; format: cell-based; settings: Staphylococcus aureus, read-out: MIC MRSA Strain 6613
Procedure: as §1

[12] = test system: MRSA Strain 5912; assay: MIC, broth microdilution; format: cell-based; settings: Staphylococcus aureus, read-out: MIC MRSA Strain 5912
Procedure: as §1

[13] = test system: MRSA Strain 5749; assay: MIC, broth microdilution; format: cell-based; settings: Staphylococcus aureus, read-out: MIC MRSA Strain 5749
Procedure: as §1

[14] = test system: MRSA Strain 6154; assay: MIC, broth microdilution; format: cell-based; settings: Staphylococcus aureus, read-out: MIC MRSA Strain 6154
Procedure: as §1

[15] = test system: MRSA strains; assay: MBC, MRSA strains taken together; format: cell-based, Staphylococcus aureus; settings: concentrations tested (up to 10 μg/ml)
Procedure: as §2

[16] = test system: MRSA strains; assay: MIC, broth microdilution, MRSA strains taken together; format: cell-based; settings: Staphylococcus aureus; over the six MRSA strains (CPD18: four out of six); read-out: MIC against MRSA strains
Procedure: as §1

[17] = test system: MRSA Strain 6100; assay: MBC, plating of wells without growth; format: cell-based; settings: Staphylococcus aureus
Procedure: as §2

[18] = test system: MRSA ATCC 43300; assay: MBC, plating of wells without growth; format: cell-based; settings: Staphylococcus aureus
Procedure: as §2

[19] = test system: E. faecalis ATCC 29213; assay: MBC, plating of wells without growth; format: cell-based; settings: Enterococcus faecalis, ATCC29213; at least 99.9% inhibition of cell count
Procedure: as §2

[20] = test system: Enterococcus faecalis ATCC 29213; assay: MIC, broth microdilution; format: cell-based; settings: for MIC: Enterococcus faecalis, ATCC29213; for Antibacterial activity in initial screening, E. faecalis: concentration of 10 μg/ml
Procedure: as §1

[21] = test system: MRSA Strain 6100; assay: MIC, broth microdilution; format: cell-based; settings: Staphylococcus aureus, read-out: MIC MRSA Strain 6100
Procedure: as §1

[22] = test system: MRSA ATCC 43300; assay: MIC, broth microdilution; format: cell-based; settings: Staphylococcus aureus, read-out: MIC MRSA ATCC 43300
Procedure: as §1

[23] = test system: S. aureus; design: method as in CLSI, 2017; settings: antimicrobials in clinical use; ref CLSI, 2017; cited from earlier work
[24] = test system: E. faecalis; design: method as in CLSI, 2017; settings: antimicrobials in clinical use; ref CLSI, 2017; cited from earlier work
[25] = test system: MRSA; design: method as in Baltch, Ritz, Bopp, Michelsen, & Smith, 2007; settings: antimicrobials used in the clinic; ref Baltch, Ritz, Bopp, Michelsen, & Smith, 2007; cited from earlier work
[26] = BSC-40 cells, BSC‐40, MTT, read-out: CC50
[27] = BSC-40 cells, BSC‐40, MTT, read-out: CC50 ± SD
[28] = Vero cells, MTT, read-out: CC50
[29] = Vero cells, MTT, read-out: CC50 ± SD
[30] = 24 hr, 35°C, read-out: MIC Staphylococcus aureus ATCC 29212
[31] = read-out: MIC against S. aureus
[32] = 24 hr, 35°C, read-out: MIC Streptococcus pyogenes ATCC 19615
[33] = read-out: MIC against S. pyogenes
[34] = clinical strain, — = no activity up to 10 μg/ml

Structure (SMILES)	MIC [1]	MBC [2] [µM]	MBC [3] [µM]	MBC [4] [µM]	MBC [5] [µM]	MBC [6] [µM]	MBC [7] [µM]	CC50 at 48 h [8, 26] [µg/mL]	CC50 at 48 h [8, 27] [µM]	CC50 at 48 h [8, 29] [µM]	MIC [9, 30] [µM]	MIC [9, 31] [µg/mL]	Antibacterial activity in initial screening, S. aureus [9]	MIC [10, 32] [µM]	MIC [10, 33] [µg/mL]	Antibacterial activity in initial screening, S. pyogenes [10]	MIC ([11]; clinical strain) [µM]	MIC ([12]; clinical strain) [µM]	MIC ([13]; clinical strain) [µM]	MIC ([14]; clinical strain) [µM]	further results
NC(COc1ccc(Cl)cc1)COc1ccc(Cl)cc1 [CPD18]	10 µg/mL and 28.7 µM	> 28.7	> 28.7	> 28.7	> 28.7	> 28.7	> 28.7	5.73 ± 0.18	16.4 ± 0.52	17.2 ± 0.26	28.7	10	showed activity	28.7	10	showed activity	28.7 (≈ 8.95 µg/mL)	28.7 (≈ 8.95 µg/mL)	28.7 (≈ 8.95 µg/mL)	28.7 (≈ 8.95 µg/mL)	CC50 at 48 h [8, 28]: 5.99 ± 0.09 µg/mL; Bactericidal activity against MRSA strains [15]: no bactericidal activity was observed; MIC [16]: 10 µg/mL and 28.7 µM
NC(COc1cccc2ccccc12)COc1cccc2ccccc12 [CPD20]	2.5 µg/mL to 5 µg/mL and 6.58 µM to 13.2 µM	6.58 (≈ 2.26 µg/mL)	6.58 (≈ 2.26 µg/mL)	6.58 (≈ 2.26 µg/mL)	26.3 (≈ 9.04 µg/mL)	6.58 (≈ 2.26 µg/mL)	26.3 (≈ 9.04 µg/mL)	2.5 ± 0.75	6.58 ± 1.97	9.98 ± 1.58	6.58	2.5	inhibited the growth	6.58	2.5	inhibited the growth	6.58 (≈ 2.26 µg/mL)	6.58 (≈ 2.26 µg/mL)	6.58 (≈ 2.26 µg/mL)	6.58 (≈ 2.26 µg/mL)	MBC [17]: 6.58 µM (≈ 2.26 µg/mL); MBC [18]: 13.2 µM (≈ 4.52 µg/mL); MBC [19]: 26.3 µM (≈ 9.04 µg/mL); CC50 at 48 h [8, 28]: 3.79 ± 0.6 µg/mL; MIC ([20]; 24 hr, 35°C, — = no activity up to 10 μg/ml, read-out: MIC Enterococcus faecalis ATCC 29213): 13.2 µM; MIC ([20]; read-out: MIC against E. faecalis): 5 µg/mL; Antibacterial activity in initial screening, E. faecalis [20]: inhibited the growth; MIC [21, 34]: 6.58 µM (≈ 2.26 µg/mL); MIC ([22]; — = no activity up to 10 μg/ml): 6.58 µM (≈ 2.26 µg/mL); MIC [16]: 2.5 µg/mL and 6.58 µM
NC(COc1ccc2ccccc2c1)COc1ccc2ccccc2c1 [CPD21]	10 µg/mL and 26.3 µM	26.3 (≈ 9.04 µg/mL)	13.2 (≈ 4.52 µg/mL)	26.3 (≈ 9.04 µg/mL)	26.3 (≈ 9.04 µg/mL)	26.3 (≈ 9.04 µg/mL)	26.3 (≈ 9.04 µg/mL)	5.06 ± 1.13	13.3 ± 2.97	11.3 ± 2.58	26.3	10	showed activity	26.3	10	showed activity	26.3 (≈ 9.04 µg/mL)	13.2 (≈ 4.52 µg/mL)	26.3 (≈ 9.04 µg/mL)	26.3 (≈ 9.04 µg/mL)	MBC [17]: 26.3 µM (≈ 9.04 µg/mL); Antibacterial activity in initial screening, E. faecalis [20]: not observed; MIC [21, 34]: 26.3 µM (≈ 9.04 µg/mL); MIC [16]: 5 µg/mL to 10 µg/mL and 13.2 µM to 26.3 µM
CN[C@H](CC(C)C)C(=O)N[C@H]1C(=O)N[C@@H](CC(N)=O)C(=O)N[C@H]2C(=O)N[C@H]3C(=O)N[C@H](C(=O)N[C@H](C(=O)O)c4cc(O)cc(O)c4-c4cc3ccc4O)[C@H](O)c3ccc(c(Cl)c3)Oc3cc2cc(c3O[C@@H]2O[C@H](CO)[C@@H](O)[C@H](O)[C@H]2O[C@H]2C[C@](C)(N)[C@H](O)[C@H](C)O2)Oc2ccc(cc2Cl)[C@H]1O [Vancomycin, reference compound]																					MIC S. aureus [23]: 0.5 to 2 µg/mL; MIC [11]: 1.38 µM (≈ 2 µg/mL); MIC [12]: 1.38 µM (≈ 2 µg/mL); MIC [21]: 1.38 µM (≈ 2 µg/mL); MIC [22]: 1.38 µM (≈ 2 µg/mL); MIC [13]: 1.38 µM (≈ 2 µg/mL); MIC [14]: 1.38 µM (≈ 2 µg/mL); MIC E. faecalis [24]: 1 to 4 µg/mL; MIC MRSA [25]: 2 µg/mL (≈ 1.38 µM)
